Laboratory results reported in patent US12600709B2, “Nonpeptide somatostatin type 5 receptor agonists and uses thereof” (Crinetics Pharmaceuticals, Inc., priority 2019, dated 2026).
Read-outs that look alike come from different tables or passages of the source.

Assays:
[1] = target: T1, human somatostatin receptor subtype 5 (Homo sapiens, UniProt P35346); assay: cAMP assay for SST5R (inhibition of cAMP in CHO-K1 cells); assay type: cell-based; details: for EC50: inhibition of cAMP via human SST5 receptor, read-out: SST5 potency; for Fold selectivity for SST5 vs SST2: class symbols, SST5 receptor over SST2 receptor
T1 construct: expressed in transfected cells
Outline: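 CHO-K1 cells stably expressing human SSTR5 were treated 20 min at 37 °C with compounds plus 1.6 μM NKH477 in HBSS, 0.5 mM HEPES pH 7.4, 0.1% BSA, 0.2 mM IBMX. Lysate cAMP measured by HTRF against a standard curve; EC50 from cAMP-versus-concentration plots.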

[2] = target: T2, human somatostatin receptor subtype 2 (Homo sapiens, UniProt P30874); assay: cAMP assay for SST2R (inhibition of cAMP in CHO-K1 cells); assay type: cell-based; details: Table B; inhibition of cAMP via human SST2 receptor; read-out: SST2 potency
T2 construct: expressed in transfected cells
Outline: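 Agonism read as decrease in NKH477 (1.6 μM)-stimulated cAMP: compounds applied 20 min, 37° C, with 0.2 mM IBMX, to CHO-K1 stably expressing human SSTR2. cAMP quantified in lysates by time-resolved fluorescence (HTRF kit, 1-24 h RT), standard-curve regression, then EC50.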

T2 sequence (P30874 whole entry): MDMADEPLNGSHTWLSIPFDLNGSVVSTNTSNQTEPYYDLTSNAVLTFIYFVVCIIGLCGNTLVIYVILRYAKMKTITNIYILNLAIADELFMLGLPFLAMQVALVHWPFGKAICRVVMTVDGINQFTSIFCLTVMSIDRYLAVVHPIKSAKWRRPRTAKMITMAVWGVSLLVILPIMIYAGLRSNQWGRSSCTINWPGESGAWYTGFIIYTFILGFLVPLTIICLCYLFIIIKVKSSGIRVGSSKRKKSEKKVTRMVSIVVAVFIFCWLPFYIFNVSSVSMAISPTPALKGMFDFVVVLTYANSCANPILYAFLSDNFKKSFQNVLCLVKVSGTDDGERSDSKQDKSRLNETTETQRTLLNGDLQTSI
T1 sequence (P35346 whole entry): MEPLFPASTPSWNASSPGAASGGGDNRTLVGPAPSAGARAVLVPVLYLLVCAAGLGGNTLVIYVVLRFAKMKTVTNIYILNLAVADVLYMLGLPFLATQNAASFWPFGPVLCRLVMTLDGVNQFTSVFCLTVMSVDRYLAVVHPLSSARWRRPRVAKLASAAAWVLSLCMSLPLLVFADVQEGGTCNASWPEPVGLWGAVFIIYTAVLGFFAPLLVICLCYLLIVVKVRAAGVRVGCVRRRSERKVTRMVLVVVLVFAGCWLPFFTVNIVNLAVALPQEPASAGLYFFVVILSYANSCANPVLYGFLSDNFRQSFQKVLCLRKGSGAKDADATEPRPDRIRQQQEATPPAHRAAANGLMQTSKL

| EC50 ([1]; Table A) [nM] | Fold selectivity for SST5 vs SST2 ([1]; Table B) | EC50 ([1]; Table B) [nM] | EC50 [2] [nM] | Structure (SMILES) |
| --- | --- | --- | --- | --- |
| < 10 | +++ (+++=>500) | < 10 | 100 to 1000 | COc1ncc(C(=O)NC2CC(F)(F)C2)c(N2CC[C@](C)(N)C2)c1-c1cc(F)cc(F)c1 [1-137, 4-[(3S)-3-amino-3-methylpyrrolidin-1-yl]-N-(3,3-difluorocyclobutyl)-5-(3,5-difluorophenyl)-6-methoxypyridine-3-carboxamide] |
| < 10 | +++ (+++=>500) | < 10 | 100 to 1000 | COc1ncc(C(=O)N[C@@H](C)C2CC2)c(N2CC[C@](C)(N)C2)c1-c1cc(F)cc(C#N)c1 [1-153, 4-[(3S)-3-amino-3-methylpyrrolidin-1-yl]-5-(3-cyano-5-fluorophenyl)-N-[(1S)-1-cyclopropylethyl]-6-methoxypyridine-3-carboxamide] |
| < 10 | +++ (+++=>500) | < 10 | > 1000 | COc1ncc(C(=O)N[C@@H](C)C2CC2)c(N2CC[C@](C)(N)C2)c1-c1cccc(OC(F)(F)F)c1 [1-154, 4-[(3S)-3-amino-3-methylpyrrolidin-1-yl]-N-[(1S)-1-cyclopropylethyl]-6-methoxy-5-[3-(trifluoromethoxy)phenyl]pyridine-3-carboxamide] |
| < 10 | +++ (+++=>500) | < 10 | > 1000 | COc1cc(-c2c(C)ncc(C(=O)N[C@@H](C)C3CC3)c2N2CC[C@](C)(N)C2)ccn1 [1-157, 4-[(3S)-3-amino-3-methylpyrrolidin-1-yl]-N-[(1S)-1-cyclopropylethyl]-2′-methoxy-2-methyl-[3,4′-bipyridine]-5-carboxamide] |
| < 10 | +++ (+++=>500) | < 10 | > 1000 | Cc1ncc(C(=O)N[C@@H](C)C2CC2)c(N2CC[C@](C)(N)C2)c1-c1cncc(Cl)c1 [1-158, 4-[(3S)-3-amino-3-methylpyrrolidin-1-yl]-5′-chloro-N-[(1S)-1-cyclopropylethyl]-2-methyl-[3,3′-bipyridine]-5-carboxamide] |
| < 10 | +++ (+++=>500) | < 10 | > 1000 | Cc1ncc(C(=O)N[C@@H](C)C2CC2)c(N2CC[C@](C)(N)C2)c1-c1ccnc(C(F)(F)F)c1 [1-159, 4-[(3S)-3-amino-3-methylpyrrolidin-1-yl]-N-[(1S)-1-cyclopropylethyl]-2-methyl-2′-(trifluoromethyl)-[3,4′-bipyridine]-5-carboxamide] |
| < 10 | +++ (+++=>500) | < 10 | 100 to 1000 | Cc1ncc(C(=O)N[C@@H](C)C2CC2)c(N2CC[C@](C)(N)C2)c1-c1cncc(F)c1 [1-160, 4-[(3S)-3-amino-3-methylpyrrolidin-1-yl]-N-[(1S)-1-cyclopropylethyl]-5′-fluoro-2-methyl-[3,3′-bipyridine]-5-carboxamide] |
| < 10 | ++ (++=100 to 499) | < 10 | > 1000 | C[C@H](NC(=O)c1cncc(-c2ccc3cnn(C)c3c2)c1N1CC[C@](C)(N)C1)C1CC1 [1-161, 4-[(3S)-3-amino-3-methylpyrrolidin-1-yl]-N-[(1S)-1-cyclopropylethyl]-5-(1-methyl-1H-indazol-6-yl)pyridine-3-carboxamide] |
| < 10 | +++ (+++=>500) | < 10 | > 1000 | C[C@H](NC(=O)c1cncc(-c2cccc3c2cnn3C)c1N1CC[C@](C)(N)C1)C1CC1 [1-162, 4-[(3S)-3-amino-3-methylpyrrolidin-1-yl]-N-[(1S)-1-cyclopropylethyl]-5-(1-methyl-1H-indazol-4-yl)pyridine-3-carboxamide] |
| < 10 | ++ (++=100 to 499) | < 10 | 100 to 1000 | C[C@H](NC(=O)c1cncc(-c2cccc3c2OC(F)(F)O3)c1N1CC[C@](C)(N)C1)C1CC1 [1-163, 4-[(3S)-3-amino-3-methylpyrrolidin-1-yl]-N-[(1S)-1-cyclopropylethyl]-5-(2,2-difluoro-2H-1,3-benzodioxol-4-yl)pyridine-3-carboxamide] |
| < 10 | +++ (+++=>500) | < 10 | 100 to 1000 | COc1ncc(C(=O)N[C@@H](C)C2CC2)c(N2CC[C@](C)(N)C2)c1-c1cc(F)cc(C(F)(F)F)c1 [1-164, 4-[(3S)-3-amino-3-methylpyrrolidin-1-yl]-N-[(1S)-1-cyclopropylethyl]-5-[3-fluoro-5-(trifluoromethyl)phenyl]-6-methoxypyridine-3-carboxamide] |
| < 10 | +++ (+++=>500) | < 10 | 100 to 1000 | COc1ncc(C(=O)N[C@@H](C)C2CC2)c(N2CC[C@](C)(N)C2)c1-c1cccc(OC(F)F)c1 [1-165, 4-[(3S)-3-amino-3-methylpyrrolidin-1-yl]-N-[(1S)-1-cyclopropylethyl]-5-[3-(difluoromethoxy)phenyl]-6-methoxypyridine-3-carboxamide] |
| < 10 | +++ (+++=>500) | < 10 | > 1000 | COc1ncc(C(=O)N[C@@H](C)C2CC2)c(N2CC[C@](C)(N)C2)c1-c1ccnc(C(F)(F)F)c1 [1-166, 4-[(3S)-3-amino-3-methylpyrrolidin-1-yl]-N-[(1S)-1-cyclopropylethyl]-2-methoxy-2′-(trifluoromethyl)-[3,4′-bipyridine]-5-carboxamide] |
| < 10 | +++ (+++=>500) | < 10 | > 1000 | COc1ncc(C(=O)N[C@@H](C)C2CC2)c(N2CC[C@](C)(N)C2)c1-c1cncc(Cl)c1 [1-167, 4-[(3S)-3-amino-3-methylpyrrolidin-1-yl]-5′-chloro-N-[(1S)-1-cyclopropylethyl]-2-methoxy-[3,3′-bipyridine]-5-carboxamide] |
| < 10 | +++ (+++=>500) | < 10 | 100 to 1000 | C[C@H](NC(=O)c1cnc(C#N)c(-c2cccc(OC(F)F)c2)c1N1CC[C@](C)(N)C1)C(F)(F)F [1-168, 4-[(3S)-3-amino-3-methylpyrrolidin-1-yl]-6-cyano-5-[3-(difluoromethoxy)phenyl]-N-[(2S)-1,1,1-trifluoropropan-2-yl]pyridine-3-carboxamide] |
| < 10 | +++ (+++=>500) | < 10 | 100 to 1000 | C[C@H](NC(=O)c1cnc(C#N)c(-c2ccnc(C(F)(F)F)c2)c1N1CC[C@](C)(N)C1)C(F)(F)F [1-169, 4-[(3S)-3-amino-3-methylpyrrolidin-1-yl]-2-cyano-2′-(trifluoromethyl)-N-[(2S)-1,1,1-trifluoropropan-2-yl]-[3,4′-bipyridine]-5-carboxamide] |
| < 10 | +++ (+++=>500) | < 10 | 100 to 1000 | COc1cc(-c2c(C#N)ncc(C(=O)N[C@@H](C)C(F)(F)F)c2N2CC[C@](C)(N)C2)ccn1 [1-170, 4-[(3S)-3-amino-3-methylpyrrolidin-1-yl]-2-cyano-2′-methoxy-N-[(2S)-1,1,1-trifluoropropan-2-yl]-[3,4′-bipyridine]-5-carboxamide] |
| < 10 | +++ (+++=>500) | < 10 | 10 to 100 | Cc1ncc(C(=O)N[C@@H](C)C(F)(F)F)c(N2CC[C@](C)(N)C2)c1-c1cc(F)cc(OC(F)F)c1 [1-171, 4-[(3S)-3-amino-3-methylpyrrolidin-1-yl]-5-[3-(difluoromethoxy)-5-fluorophenyl]-6-methyl-N-[(2S)-1,1,1-trifluoropropan-2-yl]pyridine-3-carboxamide] |
| < 10 | +++ (+++=>500) | < 10 | 100 to 1000 | Cc1ncc(C(=O)NC2CC(F)(F)C2)c(N2CC[C@](C)(N)C2)c1-c1cc(F)cc(OC(F)F)c1 [1-172, 4-[(3S)-3-amino-3-methylpyrrolidin-1-yl]-N-(3,3-difluorocyclobutyl)-5-[3-(difluoromethoxy)-5-fluorophenyl]-6-methylpyridine-3-carboxamide] |
| < 10 | ++ (++=100 to 499) | < 10 | 100 to 1000 | Cc1ncc(C(=O)N[C@@H](C)C2CC2)c(N2CC[C@](C)(N)C2)c1-c1cc(F)cc(OC(F)F)c1 [1-173, 4-[(3S)-3-amino-3-methylpyrrolidin-1-yl]-N-[(1S)-1-cyclopropylethyl]-5-[3-(difluoromethoxy)-5-fluorophenyl]-6-methylpyridine-3-carboxamide] |
| < 10 | +++ (+++=>500) | < 10 | 100 to 1000 | Cc1ncc(C(=O)NC2CCC(F)(F)CC2)c(N2CC[C@](C)(N)C2)c1-c1cc(F)cc(OC(F)F)c1 [1-174, 4-[(3S)-3-amino-3-methylpyrrolidin-1-yl]-N-(4,4-difluorocyclohexyl)-5-[3-(difluoromethoxy)-5-fluorophenyl]-6-methylpyridine-3-carboxamide] |
| < 10 | +++ (+++=>500) | < 10 | 100 to 1000 | CCOc1ncc(C(=O)N[C@@H](C)C2CC2)c(N2CC[C@](C)(N)C2)c1-c1cc(F)cc(F)c1 [1-176, 4-[(3S)-3-amino-3-methylpyrrolidin-1-yl]-N-[(1S)-1-cyclopropylethyl]-5-(3,5-difluorophenyl)-6-ethoxypyridine-3-carboxamide] |
